# Measurements taken from ChEMBL document CHEMBL2086285, “Targeting the liver stage of malaria parasites: a yet unmet goal” (J Med Chem, 2012).
# pIC50: −log10 of the molar value.
# Tested on: Plasmodium yoelii
# Assay: Antimalarial activity against Plasmodium yoelii infected in CD-1 mouse assessed as efficacy at 160 mg/kg, po after 2 hrs
# Format: functional
# Details: not given
row,Structure (SMILES),Efficacy [%]
1,CC[C@H]1OC(=O)[C@H](C)[C@@H](O[C@H]2C[C@@](C)(OC)[C@@H](O)[C@H](C)O2)[C@H](C)[C@@H](O[C@@H]2O[C@H](C)C[C@H](N(C)C)[C@H]2O)[C@](C)(O)C[C@@H](C)CN(C)[C@H](C)[C@@H](O)[C@]1(C)O [AZITHROMYCIN],100

# Tested on: Plasmodium yoelii
# Assay: Antimalarial activity against Plasmodium yoelii infected in CD-1 mouse assessed as efficacy at 160 mg/kg, ip
# Format: functional
# Details: route intraperitoneal
row,Structure (SMILES),Efficacy [%]
1,CC[C@H]1OC(=O)[C@H](C)[C@@H](O[C@H]2C[C@@](C)(OC)[C@@H](O)[C@H](C)O2)[C@H](C)[C@@H](O[C@@H]2O[C@H](C)C[C@H](N(C)C)[C@H]2O)[C@](C)(O)C[C@@H](C)CN(C)[C@H](C)[C@@H](O)[C@]1(C)O [AZITHROMYCIN],100
2,C[C@H]1c2cccc(O)c2C(=O)C2=C(O)[C@]3(O)C(=O)C(C(N)=O)=C(O)[C@@H](N(C)C)[C@@H]3[C@@H](O)[C@@H]21.O [DOXYCYCLINE],100

# Tested on: Plasmodium yoelii
# Assay: Antimalarial activity against Plasmodium yoelii infected in CD-1 mouse assessed as efficacy at 40 mg/kg, po after 2 hrs
# Format: functional
# Details: not given
row,Structure (SMILES),Efficacy [%]
1,CC[C@H]1OC(=O)[C@H](C)[C@@H](O[C@H]2C[C@@](C)(OC)[C@@H](O)[C@H](C)O2)[C@H](C)[C@@H](O[C@@H]2O[C@H](C)C[C@H](N(C)C)[C@H]2O)[C@](C)(O)C[C@@H](C)CN(C)[C@H](C)[C@@H](O)[C@]1(C)O [AZITHROMYCIN],40

# Tested on: Plasmodium falciparum
# Assay: Antimalarial activity against liver stages of Plasmodium falciparum NF54 infected in human HepG2 cells after 6 days by fluorescence microscopy
# Format: functional, organism-based
# Details: NF54, HepG2, 144 h
row,pIC50,Structure (SMILES)
1,8.15,COc1cc([C@H](O)[C@@H](C)Oc2c(OC)cc(-c3ccccc3)cc2OC)cc(OC)c1OC
2,7.70,COc1cc([C@H](O)[C@H](C)Oc2c(OC)cc(-c3ccccc3)cc2OC)cc(OC)c1OC

row,Structure (SMILES),pIC50
1,COc1cc([C@H](O)[C@@H](C)Oc2c(OC)cc(C)cc2OC)cc(OC)c1OC,6.42

# Tested on: Plasmodium yoelii yoelii
# Assay: Antimalarial activity against liver stages of Plasmodium yoelii yoelii
# Format: functional, organism-based
# Details: not given
row,pIC50,Structure (SMILES)
1,8.43,CC(CCc1ccc(O)cc1)NCCc1ccc(O)c(O)c1 (centres undefined) [DOBUTAMINE]
2,9.06,COCC(=O)O[C@]1(CCN(C)CCCc2nc3ccccc3[nH]2)CCc2cc(F)ccc2[C@@H]1C(C)C [MIBEFRADIL]
3,9.03,C=CC(C)(C)c1cc(/C=C/C(=O)c2ccc(O)cc2)c(OC)cc1O [LICOAGROCHACONE A]
4,9.07,CC(C)Nc1cccnc1N1CCN(C(=O)c2cc3cc(NS(C)(=O)=O)ccc3[nH]2)CC1 [DELAVIRDINE]

# The remaining lines, values behind:
row,Structure (SMILES),pIC50
1,CC[C@]1(O)C[C@@H]2CN(CCc3c([nH]c4ccccc34)[C@@](C(=O)OC)(c3cc4c(cc3OC)N(C)[C@H]3[C@@](O)(C(=O)OC)[C@H](OC(C)=O)[C@]5(CC)C=CCN6CC[C@]43[C@@H]65)C2)C1 [VINBLASTINE],5.10
2,CC(N)C12CC3CC(CC(C3)C1)C2 (centres undefined) [RIMANTADINE],7.45
3,CC[C@H](C)[C@H](NC(=O)[C@H]([C@@H](C)CC)N(C)C(C)=O)C(=O)N[C@H](C(=O)N[C@@H](CC(C)C)C(=O)[C@@]1(C)CO1)[C@@H](C)O [EPOXOMYCIN],5.40

# Tested on: Plasmodium berghei
# Assay: Antimalarial activity against liver stages of Plasmodium berghei in human HepG2 cells assessed as growth inhibition at 10 ug/mL
# Format: functional
# Details: read-out: GI
row,Structure (SMILES),inhibition of growth at 10 µg/mL [%]
1,COc1c2c(cc(O)c1-c1c(C)cc(OC)c3c(OC)cccc13)C[C@@H](C)N=C2C [ANCISTROBARTERINE A],51.6
2,COc1ccc(-c2c(C)cc(OC)c3c(O)cccc23)c2c1[C@@H](C)N(C=O)[C@H](C)C2,98.3
3,COc1c(-c2c(C)cc(OC)c3c(O)cccc23)ccc2c1[C@@H](C)N[C@H](C)C2,48.8
4,COc1c(C)nc(C)c2c(OC)c(-c3c(C)cc(OC)c4c(OC)cccc34)ccc12 [DIONCOPHYLLACINE A],41.9
5,COc1cc(C)c(-c2ccc(OC(=O)c3ccccc3)c3c2C[C@@H](C)N(C=O)[C@@H]3C)c2cccc(O)c12,52.7
6,COc1cccc2c(-c3ccc4c(c3O)[C@@H](C)N[C@H](C)C4)c(C)cc(OC)c12 [DIONCOPHYLLINE A],67.5

# Tested on: Plasmodium falciparum
# Assay: Antimalarial activity against liver stages of Plasmodium falciparum after 96 hrs
# Format: functional, organism-based
# Details: not given
row,pIC50,Structure (SMILES)
1,5.54,C[C@]1(C(=O)O)CSC(c2ncccc2O)=N1 [DESFERRITHIOCIN]
2,5.47,CC(=O)N(O)CCCCCNC(=O)CCC(=O)N(O)CCCCCNC(=O)CCC(=O)N(O)CCCCCN [DEFEROXAMINE]

# Tested on: Plasmodium yoelii
# Assay: Antimalarial activity against Plasmodium yoelii infected in CD-1 mouse assessed as efficacy at 40 mg/kg, ip
# Format: functional
# Details: route intraperitoneal
row,Structure (SMILES),Efficacy [%]
1,CC[C@H]1OC(=O)[C@H](C)[C@@H](O[C@H]2C[C@@](C)(OC)[C@@H](O)[C@H](C)O2)[C@H](C)[C@@H](O[C@@H]2O[C@H](C)C[C@H](N(C)C)[C@H]2O)[C@](C)(O)C[C@@H](C)CN(C)[C@H](C)[C@@H](O)[C@]1(C)O [AZITHROMYCIN],80
2,C[C@H]1c2cccc(O)c2C(=O)C2=C(O)[C@]3(O)C(=O)C(C(N)=O)=C(O)[C@@H](N(C)C)[C@@H]3[C@@H](O)[C@@H]21.O [DOXYCYCLINE],40

# Tested on: Plasmodium berghei
# Assay: Antimalarial activity against liver stages of Plasmodium berghei […] infected in human Hepa1-6 cells assessed as reduction in liver parasite load at 10 uM/L incubated for 1 hr prior to sporozoite inoculation measured after 46 to 48 hrs by fluorescence microscope
# Format: functional
# Parameters: scale not given: the % may be the effect or the level left
# Details: not given
row,Structure (SMILES),Activity [%]
1,CC(C)(C)NC(=O)[C@@H]1C[C@@H]2CCCC[C@@H]2CN1C[C@@H](O)[C@H](Cc1ccccc1)NC(=O)[C@H](CC(N)=O)NC(=O)c1ccc2ccccc2n1,55

# Tested on: Plasmodium yoelii
# Assay: Antimalarial activity against Plasmodium yoelii infected in mouse assessed as protection against parasitic infection at 160 mg/kg, po
# Format: functional
# Details: not given
row,Structure (SMILES),Activity [%]
1,CC(C)N1C(=O)C(=O)N=C1N/C(=N\C(=O)OC(C)(C)C)Nc1ccc(Cl)c(Cl)c1,100
2,CCOC(=O)/N=C(\NC1=NC(=O)C(=O)N1C(C)C)Nc1ccc(Cl)c(Cl)c1,100

# Tested on: Plasmodium yoelii
# Assay: Antimalarial activity against liver stages of Plasmodium yoelii 265 BY infected in Swiss mouse after 48 hrs by fluorescence microscopy
# Format: functional, organism-based
# Details: not given
row,pIC50,Structure (SMILES)
1,4.72,COc1cc(C)cc(OC)c1OC(C)[C@@H](O)c1ccc2c(c1)OC(F)(F)O2 (mixture of isomers; 145)
2,5.25,COc1cc(C)cc(OC)c1OC(C)[C@@H](O)c1ccc2c(c1)OC(F)(F)O2 (mixture of isomers; 146)
3,4.69,COc1cccc(OC)c1OC(C)[C@@H](O)c1ccc2c(c1)OC(F)(F)O2 (mixture of isomers; 144)

# Same assay, conditions: Plasmodium yoelii, 265 BY, 48 h
row,pIC50,Structure (SMILES)
1,4.54,COc1cc([C@H](O)[C@H](C)Oc2c(OC)cccc2OC)cc(OC)c1OC
2,5.44,COc1cc([C@H](O)[C@@H](C)Oc2c(OC)cc(-c3ccccc3)cc2OC)cc(OC)c1OC
3,5.60,COc1cc([C@H](O)[C@@H](C)Oc2c(OC)cccc2OC)cc(OC)c1OC
4,4.70,COc1cccc(OC)c1OC(C)[C@@H](O)c1ccc2c(c1)OC(F)(F)O2 (mixture of isomers; 143)
5,5.45,COc1cc([C@H](O)[C@H](C)Oc2c(OC)cc(-c3ccccc3)cc2OC)cc(OC)c1OC

# Further lines, the compound ahead of its results:
row,Structure (SMILES),pIC50
1,COc1cc([C@H](O)[C@@H](C)Oc2c(OC)cc(C)cc2OC)cc(OC)c1OC,8.35
2,COc1cc([C@H](O)[C@H](C)Oc2c(OC)cc(C)cc2OC)cc(OC)c1OC,4.30

# Tested on: Plasmodium berghei
# Assay: Antimalarial activity against liver stages of Plasmodium berghei assessed as inhibition of cytochrome bc1 complex
# Format: functional, organism-based
# Details: not given
row,pIC50,Structure (SMILES)
1,5.35,Cc1cccc2c1C(=O)C(O)=C(C[C@H](C)CCCCCC(F)(F)F)C2=O
2,7.02,CCCCCC[C@@H](C)CC1=C(O)C(=O)c2ccccc2C1=O
3,6.61,CCCCCC[C@@H](C)CC1=C(O)C(=O)c2c(C)cccc2C1=O
4,7.77,C[C@H](CCCCCC(F)(F)F)CC1=C(O)C(=O)c2ccccc2C1=O

# Tested on: Plasmodium yoelii
# Assay: Antimalarial activity against liver stages of Plasmodium yoelii after 96 hrs
# Format: functional, organism-based
# Details: Plasmodium yoelii, 96 h
row,pIC50,Structure (SMILES)
1,5.00,C[C@]1(C(=O)O)CSC(c2ncccc2O)=N1 [DESFERRITHIOCIN]
2,4.70,CC(=O)N(O)CCCCCNC(=O)CCC(=O)N(O)CCCCCNC(=O)CCC(=O)N(O)CCCCCN [DEFEROXAMINE]

# Tested on: Plasmodium yoelii
# Assay: Antimalarial activity against liver stages of Plasmodium yoelii
# Format: functional, organism-based
# Details: not given
row,pIC50,Structure (SMILES)
1,< 3.70,CN1CN(Cc2ccccc2)C(=O)N[C@@H](Cc2ccccc2)C1=O
2,< 3.70,CN1CNC(=O)N[C@H](Cc2ccccc2)C1=O

# Tested on: Plasmodium vivax
# Assay: Antimalarial activity against Plasmodium vivax assessed as effect on cure rate after 28 days
# Format: functional
# Details: not given
row,Structure (SMILES),Activity [%]
1,CCC[C@@H]1C[C@@H](C(=O)N[C@@H]([C@H]2O[C@H](SC)[C@H](O)[C@@H](O)[C@H]2O)[C@H](C)Cl)N(C)C1 [CLINDAMYCIN],56
2,CN(C)[C@@H]1C(O)=C(C(N)=O)C(=O)[C@@]2(O)C(O)=C3C(=O)c4c(O)cccc4[C@@](C)(O)[C@H]3C[C@@H]12 [TETRACYCLINE],56
3,CC[C@H]1OC(=O)[C@H](C)[C@@H](O[C@H]2C[C@@](C)(OC)[C@@H](O)[C@H](C)O2)[C@H](C)[C@@H](O[C@@H]2O[C@H](C)C[C@H](N(C)C)[C@H]2O)[C@](C)(O)C[C@@H](C)CN(C)[C@H](C)[C@@H](O)[C@]1(C)O [AZITHROMYCIN],58
4,C[C@H]1c2cccc(O)c2C(=O)C2=C(O)[C@]3(O)C(=O)C(C(N)=O)=C(O)[C@@H](N(C)C)[C@@H]3[C@@H](O)[C@@H]21.O [DOXYCYCLINE],56
